For 4 compounds, TGI results are on record in PubChem BioAssay (NCI).

Each structure is given as a SMILES string.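 How tested: cells in 96-well plates exposed to compound for 48 hours at five concentrations. TGI: concentration producing complete growth inhibition.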

For one assay, the system named is SK-MEL-2 melanoma. As to the kind of experiment: NCI tumour cell line growth inhibition, 48 h.
Regarding `COc1ccc(Nc2[nH]c(C(C)=O)c(N)c2C(=S)Nc2ccccc2)cc1`, the TGI is above 100 µM.
As for `Oc1ccccc1C(c1cc2c(cc1O)OCO2)N1CCOCC1` (stereo unspecified), the TGI was 36 µM.
In turn, `CCN(CC)CCOC(c1cc(OC)ccc1OC)c1ccc2n1-c1ccccc1OC2` (stereo unspecified) gave a TGI of 26 µM.

The test system of a further assay is SK-MEL-28 melanoma. As to the kind of experiment: NCI tumour cell line growth inhibition, 48 h.
In turn, `CCOP(=O)(OCC)[C@H](O)c1ccsc1` displayed a TGI above 100 µM.
Still for that read-out and setting: the value for `COc1ccc(Nc2[nH]c(C(C)=O)c(N)c2C(=S)Nc2ccccc2)cc1` was above 100 µM; that for `Oc1ccccc1C(c1cc2c(cc1O)OCO2)N1CCOCC1` (stereo unspecified) was 38.5 µM.
In turn, `CCN(CC)CCOC(c1cc(OC)ccc1OC)c1ccc2n1-c1ccccc1OC2` (stereo unspecified) had a TGI of 29 µM.

The subject of a further assay is SK-MEL-5 melanoma. As to the kind of experiment: NCI tumour cell line growth inhibition, 48 h.
On to `CCOP(=O)(OCC)[C@H](O)c1ccsc1`, for which the TGI was above 100 µM.
Same read-out and setting: under `COc1ccc(Nc2[nH]c(C(C)=O)c(N)c2C(=S)Nc2ccccc2)cc1` stands above 100 µM.
Same read-out and setting: under `Oc1ccccc1C(c1cc2c(cc1O)OCO2)N1CCOCC1` (stereo unspecified) stands 31.7 µM; under `CCN(CC)CCOC(c1cc(OC)ccc1OC)c1ccc2n1-c1ccccc1OC2` (stereo unspecified), 22.2 µM.

In the next assay the test system is SK-OV-3 ovarian. As to the kind of experiment: NCI tumour cell line growth inhibition, 48 h.
With `CCOP(=O)(OCC)[C@H](O)c1ccsc1`, the TGI was above 100 µM.
Same read-out and setting: under `COc1ccc(Nc2[nH]c(C(C)=O)c(N)c2C(=S)Nc2ccccc2)cc1` stands above 100 µM.
Turning to `Oc1ccccc1C(c1cc2c(cc1O)OCO2)N1CCOCC1` (stereo unspecified), the TGI is above 100 µM.

The next assay deals with SN12C renal. As to the kind of experiment: NCI tumour cell line growth inhibition, 48 h.
In turn, `CCOP(=O)(OCC)[C@H](O)c1ccsc1` gave a TGI above 100 µM.
Compound `COc1ccc(Nc2[nH]c(C(C)=O)c(N)c2C(=S)Nc2ccccc2)cc1` registered a TGI above 100 µM.
On the same count and under the same terms, under `Oc1ccccc1C(c1cc2c(cc1O)OCO2)N1CCOCC1` (stereo unspecified) stands 34.3 µM; under `CCN(CC)CCOC(c1cc(OC)ccc1OC)c1ccc2n1-c1ccccc1OC2` (stereo unspecified), 7.69 µM.

In another assay the test system is SNB-19 CNS. As to the kind of experiment: NCI tumour cell line growth inhibition, 48 h.
`CCOP(=O)(OCC)[C@H](O)c1ccsc1` registered a TGI above 100 µM.
On the same count and under the same terms, under `COc1ccc(Nc2[nH]c(C(C)=O)c(N)c2C(=S)Nc2ccccc2)cc1` stands above 100 µM.
Still for that read-out and setting: the value for `Oc1ccccc1C(c1cc2c(cc1O)OCO2)N1CCOCC1` (stereo unspecified) was 37.2 µM; that for `CCN(CC)CCOC(c1cc(OC)ccc1OC)c1ccc2n1-c1ccccc1OC2` (stereo unspecified) was 31.2 µM.

A further assay has as its system SNB-75 CNS. As to the kind of experiment: NCI tumour cell line growth inhibition, 48 h.
Turning to `CCOP(=O)(OCC)[C@H](O)c1ccsc1`, the TGI is above 100 µM.
Same read-out and setting: the value for `COc1ccc(Nc2[nH]c(C(C)=O)c(N)c2C(=S)Nc2ccccc2)cc1` was above 100 µM.
The same measure, in the same setting: under `Oc1ccccc1C(c1cc2c(cc1O)OCO2)N1CCOCC1` (stereo unspecified) stands 32 µM.
On the same count and under the same terms, under `CCN(CC)CCOC(c1cc(OC)ccc1OC)c1ccc2n1-c1ccccc1OC2` (stereo unspecified) stands 17.3 µM.

The test system of a further assay is SR leukemia. As to the kind of experiment: NCI tumour cell line growth inhibition, 48 h.
Compound `CCOP(=O)(OCC)[C@H](O)c1ccsc1` returned a TGI above 100 µM.
On the same count and under the same terms, under `COc1ccc(Nc2[nH]c(C(C)=O)c(N)c2C(=S)Nc2ccccc2)cc1` stands above 100 µM; under `Oc1ccccc1C(c1cc2c(cc1O)OCO2)N1CCOCC1` (stereo unspecified), 24.6 µM.

Another assay relates to SW-620 colon. As to the kind of experiment: NCI tumour cell line growth inhibition, 48 h.
The compound `CCOP(=O)(OCC)[C@H](O)c1ccsc1` gave a TGI above 100 µM.
On the same count and under the same terms, the value for `COc1ccc(Nc2[nH]c(C(C)=O)c(N)c2C(=S)Nc2ccccc2)cc1` was above 100 µM.
With `Oc1ccccc1C(c1cc2c(cc1O)OCO2)N1CCOCC1` (stereo unspecified), the TGI amounted to 70.8 µM.
Still for that read-out and setting: the value for `CCN(CC)CCOC(c1cc(OC)ccc1OC)c1ccc2n1-c1ccccc1OC2` (stereo unspecified) was 21.1 µM.

Another assay relates to T-47D breast. As to the kind of experiment: NCI tumour cell line growth inhibition, 48 h.
The compound `CCOP(=O)(OCC)[C@H](O)c1ccsc1` had a TGI above 100 µM.
For `COc1ccc(Nc2[nH]c(C(C)=O)c(N)c2C(=S)Nc2ccccc2)cc1`, the TGI was above 100 µM.
Turning to `Oc1ccccc1C(c1cc2c(cc1O)OCO2)N1CCOCC1` (stereo unspecified), the TGI is 33.8 µM.
Same read-out and setting: the value for `CCN(CC)CCOC(c1cc(OC)ccc1OC)c1ccc2n1-c1ccccc1OC2` (stereo unspecified) was 51.3 µM.

For the next assay, the system named is TK-10 renal. As to the kind of experiment: NCI tumour cell line growth inhibition, 48 h.
On to `CCOP(=O)(OCC)[C@H](O)c1ccsc1`, for which the TGI was above 100 µM.
Compound `COc1ccc(Nc2[nH]c(C(C)=O)c(N)c2C(=S)Nc2ccccc2)cc1` registered a TGI above 100 µM.
Same read-out and setting: under `CCN(CC)CCOC(c1cc(OC)ccc1OC)c1ccc2n1-c1ccccc1OC2` (stereo unspecified) stands 25.4 µM.

The next assay relates to U251 CNS. As to the kind of experiment: NCI tumour cell line growth inhibition, 48 h.
In turn, `CCOP(=O)(OCC)[C@H](O)c1ccsc1` showed a TGI above 100 µM.
Still for that read-out and setting: the value for `COc1ccc(Nc2[nH]c(C(C)=O)c(N)c2C(=S)Nc2ccccc2)cc1` was above 100 µM.
Turning to `Oc1ccccc1C(c1cc2c(cc1O)OCO2)N1CCOCC1` (stereo unspecified), the TGI was found to be 30.2 µM.
For the compound `CCN(CC)CCOC(c1cc(OC)ccc1OC)c1ccc2n1-c1ccccc1OC2` (stereo unspecified), the TGI was found to be 28.1 µM.

For the next assay, the system named is UACC-257 melanoma. As to the kind of experiment: NCI tumour cell line growth inhibition, 48 h.
`CCOP(=O)(OCC)[C@H](O)c1ccsc1`: the TGI was above 100 µM.
The same measure, in the same setting: the value for `COc1ccc(Nc2[nH]c(C(C)=O)c(N)c2C(=S)Nc2ccccc2)cc1` was above 100 µM; that for `Oc1ccccc1C(c1cc2c(cc1O)OCO2)N1CCOCC1` (stereo unspecified) was 36.1 µM; that for `CCN(CC)CCOC(c1cc(OC)ccc1OC)c1ccc2n1-c1ccccc1OC2` (stereo unspecified) was 30.6 µM.

The subject of another assay is UACC-62 melanoma. As to the kind of experiment: NCI tumour cell line growth inhibition, 48 h.
As for `CCOP(=O)(OCC)[C@H](O)c1ccsc1`, the TGI is above 100 µM.
Compound `COc1ccc(Nc2[nH]c(C(C)=O)c(N)c2C(=S)Nc2ccccc2)cc1` returned a TGI of 95.7 µM.
Same read-out and setting: the value for `Oc1ccccc1C(c1cc2c(cc1O)OCO2)N1CCOCC1` (stereo unspecified) was 32.3 µM; that for `CCN(CC)CCOC(c1cc(OC)ccc1OC)c1ccc2n1-c1ccccc1OC2` (stereo unspecified) was 7.75 µM.

Another assay deals with UO-31 renal. As to the kind of experiment: NCI tumour cell line growth inhibition, 48 h.
Take `CCOP(=O)(OCC)[C@H](O)c1ccsc1`: the TGI was above 100 µM.
Consider `COc1ccc(Nc2[nH]c(C(C)=O)c(N)c2C(=S)Nc2ccccc2)cc1`, for which the TGI is above 100 µM.
The same measure, in the same setting: the value for `Oc1ccccc1C(c1cc2c(cc1O)OCO2)N1CCOCC1` (stereo unspecified) was 29.3 µM; that for `CCN(CC)CCOC(c1cc(OC)ccc1OC)c1ccc2n1-c1ccccc1OC2` (stereo unspecified) was 23 µM.
